Where “and” joins values, the source holds several entries; their conditions need not be identical. Equal values may be shown once. Entries after “also recorded” stand apart in the source; their conditions may differ. Read-outs that look alike come from different tables or passages of the source.
Experiments:
[1] = Solubility; assay type: physicochemical
[2] = Light stability; assay type: physicochemical; conditions: in words
[3] = system: spontaneously hypertensive rats; test: Systolic arterial pressure in awake spontaneously hypertensive female rats of the Okamoto-Aoki line, intragastric; assay type: in vivo; conditions: for Hypotensive effect, %, upon administration to spontaneously hypertensive rats: into the stomach
Experimental: Investigation of the pharmacological action of 2,6-dimethyl-3,5-dicarbomethoxy-4-(o-difluoromethylthiophenyl)-1,4-dihydropyridine upon parameters characterizing the performance of the cardiovascular system has been carried out in anesthetized cats, as well as in rats.
In the conditions as stated above, the proposed compound exceeded the SKF-24260 compound approximately 3 times with respect to both hypotensive activity and active period (see Table 1).
24 hours after administration of the proposed compound in a dose of 10 mg/kg, the systolic arterial pressure was down by a further 21.4±2.7%.

[4] = system: arterial blood pressure of anesthetized cats; test: Reduction of arterial blood pressure by 30 percent (ED30) in anesthetized cats; assay type: in vivo; conditions: for ED30: Felis catus, read-out: ED30 (effective dose that reduces arterial blood pressure by 30 percent)
[5] = system: coronary blood flow; test: Volume rate of the coronary blood flow in anesthetized cats, intravenous; assay type: in vivo; conditions: for Effective period / Increase in coronary blood flow: intravenous
[6] = Acute toxicity in breedless white mice, intraperitoneal; assay type: in vivo; conditions: mouse, in vivo, ip; intraperitoneal administration to white mice
Description: (§1) In experiments carried out in breedless white mice, the proposed compound, administered intraperitoneally, has been investigated for acute toxicity.

[7] = system: white mice; test: as above; assay type: in vivo; conditions: in words
Description: as §1

[8] = system: coronary blood flow; conditions: prior-art compound, in words; cited from earlier work
[9] = prior-art compound, in words; cited from earlier work
[10] = system: arterial blood pressure of anesthetized cats; conditions: prior-art compound, in words; cited from earlier work
[11] = system: white mice; conditions: prior-art compound, in words; cited from earlier work

For `COC(=O)C1=C(C)NC(C)=C(C(=O)OC)C1c1ccccc1SC(F)F` [Proposed compound, 2,6-dimethyl-3,5-dicarbomethoxy-4-(o-difluoromethylthiophenyl)-1,4-dihydropyridine], which “Solubility in organic solvents” value ([1]; organic solvents) is on record?
The value was “soluble in organic solvents”.

And the Solubility in water ([1]; water)?
The Solubility in water was “insoluble in water”.

And the Sensitivity to light [2]?
Its Sensitivity to light is “light-resistant”.

What about the Systolic arterial pressure ([3]; 1 mg/kg and 10 mg/kg into the stomach, in words) of the same compound?
Its Systolic arterial pressure is “dropped considerably”.

What about the “Hypotensive effect, %, upon administration to spontaneously hypertensive rats” value (from here on “Hypotensive effect, %”) ([3]; after 6 hours, 1 mg/kg) of the same compound?
The value was 19.5%.

What about the “Hypotensive effect, %” value ([3]; after 6 hours, 10 mg/kg) of the same compound?
Its value is 54.8%.

And the “Hypotensive effect, %” value ([3]; after 24 hours, 10 mg/kg, 10 mg/kg)?
The value was 21.4±2.7% and 21.4%.

What about the “Duration of hypotensive activity” value ([3]; in words) of the same compound?
Its value is “prolonged duration; also recorded: highly prolonged hypotensive activity”.

What about the “Duration of hypotensive action (active period) relative to SKF-24260” value ([3]; spontaneously hypertensive rats) of the same compound?
The value was “approximately 3 times”.

What about the ED30 [4] of the same compound?
Its ED30 is 0.019 mg/kg.

And the “Hypotensive effect compared with SKF-24260” value ([4]; acute experiments, 50% aqueous dimethylacetamide, in words)?
Its value is “same hypotensive effect”.

What about the Effective period ([5]; 0.05 mg/kg) of the same compound?
The Effective period was 30 min.

And the “Increase in coronary blood flow” value ([5]; 0.05 mg/kg)?
Its value is 103%.

And the Effective period ([5]; 0.1 mg/kg)?
Its Effective period is 65 min.

What about the “Increase in coronary blood flow” value ([5]; 0.1 mg/kg) of the same compound?
Its value is 150%.

What about the Coronarodilating effect ([5]; in words) of the same compound?
Its Coronarodilating effect is “pronounced coronarodilatory action; also recorded: capable of producing a coronarodilating effect”.

And the “Coronarodilating effect compared with Adalate” value ([5]; in words)?
Its value is “comparable with that of Adalate; also recorded: comparable with the coronarodilatory action of Adalate”.

And the LD50 [6]?
The LD50 was 93 mg/kg.

And the Toxicity [7]?
The Toxicity was “low toxicity”.

And the “Toxicity compared with SKF-24260” value ([7]; intraperitoneal, mice)?
The value was “considerably lower; also recorded: considerably less toxic”.

Which results are given for `COC(=O)C1=C(C)NC(C)=C(C(=O)OC)C1c1ccccc1[N+](=O)[O-]` [Adalate, 2,6-dimethyl-3,5-dicarbomethoxy-4-(o-nitrophenyl)-1,4-dihydropyridine, reference compound]?
Coronarodilating activity [8]: high coronarodilating activity; Effective period ([5]; 0.05 mg/kg): 35 min; Increase in coronary blood flow ([5]; 0.05 mg/kg): 90%; Sensitivity to light [9]: highly sensitive to light, decomposing rapidly in the presence of light

For `CCOC(=O)C1=C(C)NC(C)=C(C(=O)OCC)C1c1ccccc1C(F)(F)F` [SKF-24260, 2,6-dimethyl-3,5-dicarbothoxy-4-(o-trifluoromethylphenyl)-1,4-dihydropyridine, reference compound], which “Systolic arterial pressure after 24 hours” value ([3]; 10 mg/kg, 24 hours, result in words) is on record?
Its value is “return to the initial value or increase above the initial level; also recorded: Initial”.

What about the “Hypotensive effect, %” value ([3]; after 6 hours, 1 mg/kg) of the same compound?
Its value is 6.0%.

What about the “Hypotensive effect, %” value ([3]; after 6 hours, 10 mg/kg) of the same compound?
The value was 15.8%.

What about the ED30 [4] of the same compound?
Its ED30 is 0.022 mg/kg.

What about the “Duration of hypotensive effect” value [10] of the same compound?
Its value is “short duration”.

What about the Hypotensive activity [10] of the same compound?
The Hypotensive activity was “appreciable hypotensive activity”.

And the Toxicity [11]?
The Toxicity was “high toxicity”.

And the LD50 [6]?
Its LD50 is 38.5 mg/kg.
